These results are taken from paper PMC9969401, “Discovery of 2-(3-Benzamidopropanamido)thiazole-5-carboxylate Inhibitors of the Kinesin HSET (KIFC1) and the Development of Cellular Target Engagement Probes” (Journal of Medicinal Chemistry, 2023).

pIC50: −log10 of the molar value.

The target of experiment [1] is T1, recombinant full-length HSET (Homo sapiens, UniProt Q9BW19).
T1 construct: 5 nM full-length human N-terminal His-tag HSET; His-tag (N)
T1 sequence (Q9BW19 1-673): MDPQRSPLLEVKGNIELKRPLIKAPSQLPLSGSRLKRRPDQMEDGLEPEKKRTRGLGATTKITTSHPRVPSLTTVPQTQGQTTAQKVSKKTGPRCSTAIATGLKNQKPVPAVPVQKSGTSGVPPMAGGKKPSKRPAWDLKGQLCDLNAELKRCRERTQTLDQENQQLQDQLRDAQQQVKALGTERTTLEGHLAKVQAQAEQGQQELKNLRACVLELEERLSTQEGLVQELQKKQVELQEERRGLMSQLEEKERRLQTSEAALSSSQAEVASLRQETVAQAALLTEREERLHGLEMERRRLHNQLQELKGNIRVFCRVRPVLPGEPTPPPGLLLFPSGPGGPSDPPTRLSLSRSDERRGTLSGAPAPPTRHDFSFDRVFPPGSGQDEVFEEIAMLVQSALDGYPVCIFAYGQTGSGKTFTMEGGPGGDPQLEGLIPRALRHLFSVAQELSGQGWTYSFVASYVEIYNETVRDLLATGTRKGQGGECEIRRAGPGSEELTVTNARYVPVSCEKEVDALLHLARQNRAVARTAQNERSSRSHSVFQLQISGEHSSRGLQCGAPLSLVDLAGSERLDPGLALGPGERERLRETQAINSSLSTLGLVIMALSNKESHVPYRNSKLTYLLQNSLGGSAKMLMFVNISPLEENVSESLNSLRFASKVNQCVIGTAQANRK
Nature of the experiment: ADP-Glo HSET assay (500 μM ATP). The class given is biochemical. As to conditions: high ATP concentration of 500 μM; single determination or mean of two. The protocol: The HSET or Eg5 ATPase activity was measured using the ADP-Glo Kinase Assay kit (Promega, V9102). The assays were run using final concentrations of 5 nM full-length human N-terminal His-tag HSET or 4 nM GST-tagged Eg5 motor domain protein (Cytoskeleton, EG01) and an assay buffer containing 20 mM HEPES pH 6.8, 10 mM MgCl2, 0.25 mM EGTA, 0.4 mM Triton X-100, and 1 mM DTT. Preformed microtubules (Universal Biologicals Cambridge, bovine MT001-XL, or porcine MT002-XL), which were reconstituted in 15 mM PIPES pH 7, 1 mM MgCl2, and 20 μM paclitaxel, were present at a final assay concentration of 70 μg/mL. A reaction volume of 5 μL was used in Proxiplate 384 plus white assay plates (PerkinElmer, 6008280). To measure compound inhibition, 100 nL of compound dissolved in DMSO or DMSO alone was preincubated with the HSET and microtubules for 10 min before 3 μM Ultra-Pure ATP was added to start the ATPase reaction for the 3 μM ATP HSET assay. For the 500 μM ATP HSET assay, the addition of 500 μM Ultra-Pure ATP was used. For the Eg5 ATPase assay, 4.8 μM Ultra-Pure ATP was used. All reactions were incubated at 25 °C for 80 min and then stopped by the addition of 5 μL of the ADP-Glo reagent. 10 μL of Kinase Detection Reagent was then added after a further 45 min of incubation. The luminescence was read after 45 min on a PheraStar FSX plate reader (BMG Labtech). The data processing was performed using Dotmatics Studies software package. Percentage inhibition was determined based on normalization to high controls (0% inhibition, all reagents with 100 nL of DMSO alone) and low controls (100% inhibition […], without HSET). The IC50 values for each compound were determined using a four-parameter logistic curve fit of % inhibition versus concentration.

The target in experiment [2] is T1, recombinant full-length HSET. Nature of the experiment: ADP-Glo HSET assay (3 μM ATP), microtubule-stimulated ATPase. The class given is biochemical. The settings on record: for pIC50: preformed microtubules, 3 μM ATP, read-out: HSET ADP-Glo IC50. A digest of the protocol:
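His-tagged full-length HSET (5 nM) or GST-Eg5 motor domain (4 nM), with 70 μg/mL paclitaxel-stabilised microtubules in HEPES pH 6.8 buffer, was preincubated with compound for 10 min. ATP was then added (3 or 500 μM for HSET, 4.8 μM for Eg5), followed by 80 min at 25 °C and ADP-Glo luminescence. IC50 was fitted with a four-parameter logistic.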
Background: In ADP-Glo the light output rises with the ADP produced.

Setting [3] is: mean (±SD) n ≥ 3 (37 n = 2, 38 single determination) (Table 3).

In general, pIC50 refers to −log10 of the IC50, conventionally taken in molar units. Consider `CCCOC(=O)c1sc(NC(=O)C[C@H](CCCN(C)C)NC(=O)c2cccc(-c3noc(C)n3)c2)nc1C` [Compound 36, Propyl (S)-2-(6-(Dimethylamino)-3-(3-(5-methyl-1,2,4-oxadiazol-3-yl)benzamido)hexanamido)-4-methylthiazole-5-carboxylate], for which the pIC50 in experiment [1] was 7.05; in experiment [2] (setting [3]) it was 7.96; in experiment [2] (mean (±SD) n ≥ 3 (Table 4)), 7.96.
On to `CCCOC(=O)c1sc(NC(=O)C[C@H](CCCN(C)C(=O)O[C@@H]2CC/C=C/CCC2)NC(=O)c2cccc(-c3noc(C)n3)c2)nc1C` [Compound 38, Propyl 2-((S)-6-(((((S,E)-Cyclooct-4-en-1-yl)oxy)carbonyl)(methyl)amino)-3-(3-(5-methyl-1,2,4-oxadiazol-3-yl)benzamido)hexanamido)-4-methylthiazole-5-carboxylate], for which the “fold decrease in HSET activity” value in experiment [2] (compared to its parent compound (35)) came out at 11 fold. For the same molecule, in experiment [2] (setting [3]), the pIC50 is 6.66.
Regarding `CCCOC(=O)c1sc(NC(=O)C[C@H](CCCNC)NC(=O)c2cccc(-c3noc(C)n3)c2)nc1C` [Compound 35, Propyl (S)-4-Methyl-2-(3-(3-(5-methyl-1,2,4-oxadiazol-3-yl)benzamido)-6-(methylamino)hexanamido)thiazole-5-carboxylate], the pIC50 in experiment [1] was 7.18; in experiment [2] (setting [3]) it was 7.72; in experiment [2] (mean (±SD) n ≥ 3 (Table 4)) it was 7.72.
As for `CCCOC(=O)c1sc(NC(=O)CCNC(=O)c2cccc(-c3noc(C)n3)c2)nc1C` [Compound 32, Propyl 4-Methyl-2-(3-(3-(5-methyl-1,2,4-oxadiazol-3-yl)benzamido)propanamido)thiazole-5-carboxylate], the pIC50 in experiment [1] is 7.29; in experiment [2] (mean (±SD) n ≥ 3 (Table 4)), 7.92; in experiment [2] (mean (±SD) n ≥ 3, >200 from a single determination (Table 2)), 7.92. The LE in experiment [2] (LE = −1.4Log(IC50 [M])/number of non-hydrogen atoms (Table 2)) was 0.35. Further, the LLE in experiment [2] (LLE = −Log(IC50 [M]) – cLogP (MoKa) (Table 2)) is on record as 4.8. The “fold increase in HSET inhibition” value in experiment [2] (propyl ester versus ethyl ester 13) is listed as “fivefold”.
